The subject of data set [1] is anaphylactoid dextran reaction in the rat paw. Nature of the data set: Dextran edema test (anaphylactoid dextran reaction, paw swelling). In kind it is in vivo. The settings on record: for ED35: 0.5 h, rat, graphic extrapolation; for % Inhibition of swelling: rat paw, dextran, dose of 100 mgm/kg (p.o.). From the text:
The antiallergic activity of the compounds of the present invention was ascertained and compared to that of structurally related known compounds by the anaphylactic dextran reaction method, where
Dextran induces in the rat a de-granulation of mast cells and thus the release of mediator substances such as histamine and serotonin, with consequent edema formation. The reaction manifests itself in a manner similar to anaphylaxis [see Morrison et al., J.exp.Med. 103, 399 (1956)].
Fasted male laboratory rats (Chbb:Thom.SPF) having a body weight of 120-180 gm were used as the test animals; they were initially kept in wire cages, and after provocation of the reaction on chaff. The allergic reaction was released by subplantar injection into the right hind paw of 100 μgm of dextran (mol. wt. 60,000) in 0.1 ml of physiological sodium chloride solution. The degree of inflammatory swelling was determined by dorso-plantar measurement of the thickness of the paw [see Doepfner et al., Int. Arch. Allergy 12, 89 (1958)] in 1/100 mm; swelling was defined as the difference between the paw thickness 30 minutes after the dextran injection and the paw thickness before the dextran injection. For the dextran injection and the paw thickness measurements the animal was placed under light general anesthesia with ether (etherrausch).
The test compound was administered shortly before release of the allergic reaction in sodium chloride solution i.v. (0.5 ml/100 gm body weight), or 10 minutes before in 1% tylose 2000 p.o. (1 ml/100 gm body weight). Control animals received only the vehicle.
From the raw data thus obtained the percentage of swelling inhibition was calculated from the average paw swelling in the treated animals (T) and in the control animals (K) in accordance with the formula [formula] By graphic extrapolation the dose of test compound was determined which produced a 35% reduction of the swelling (ED35). For graphic representation of percentage inhibition values the standard error (sx --) was determined according to Fenner, Naturwissenschaften 19, 310 (1931).
For the anaphylactoid dextran reaction in the rat paw the following values were obtained at a dose of 100 mgm/kg: […]

A short description of data set [2]: Absorption: quotient ED35 p.o./ED35 i.v. from the dextran edema test. The conditions noted are these: in vivo; rat; the smaller the quotient, the better the absorption. The source says: For the efficacy of a pharmaceutical which is to be administered perorally, the absorption is of particular advantage. Conclusions regarding the absorption can be drawn from a comparison of the ED35 --values p.o. and i.v.; the smaller the quotient ED35 p.o./ED35 i.v., the better the absorption.

Where [3] appears, read: iv, i.v., shortly before dextran, sodium chloride solution, read-out: ED35 i.v. (dose producing 35% reduction of the swelling).
Where [4] appears, read: po, p.o., 10 minutes before dextran, 1% tylose, read-out: ED35 p.o. (dose producing 35% reduction of the swelling).

Like-named read-outs stand apart in the source and are kept apart here.

For the compound `O=C(O)c1ccc2nc3ccccn3c(=O)c2c1` [A, 11-Oxo-11H-pyrido[2,1-b]quinazoline-2-carboxylic acid], the results for the ED35 in data set [1] (setting [3]) and in data set [1] (setting [4]) were 2.1 mg/kg and 4 mg/kg, respectively. Further, the ED35 p.o./i.v. ratio (absorption) in data set [2] turned out to be 1.9.

Take `O=C(O)c1cccc2nc3ccccn3c(=O)c12` [B, 11-Oxo-11H-pyrido[2,1-b]quinazoline-1-carboxylic acid]: the “% Inhibition of swelling” value in data set [1] was determined as 0%.

On to `O=C(O)c1cccc2c(=O)n3ccccc3nc12` [C, 11-Oxo-11H-pyrido[2,1-b]quinazoline-4-carboxylic acid], for which, in data set [1], the “% Inhibition of swelling” value was 10%.

On to `O=C(O)c1ccn2c(=O)c3ccccc3nc2c1` [D, 11-Oxo-11H-pyrido[2,1-b]quinazoline-7-carboxylic acid], for which the “% Inhibition of swelling” value in data set [1] was determined as 38%.

On to `O=C(O)c1ccc2nc3ccccc3c(=O)n2c1` [E, 11-Oxo-11H-pyrido[2,1-b]-quinazoline-8-carboxylic acid], for which the ED35 was 1.1 mg/kg in data set [1] (setting [3]) and 4.4 mg/kg in data set [1] (setting [4]). Also, the ED35 p.o./i.v. ratio (absorption) in data set [2] is 4.
